# Patent US7651978B2, “Selective herbicides based on a substituted phenylsulphonylaminocarbonyl-triazolinone” (Arysta LifeScience North America, LLC, priority 1998, dated 2010)
# Experiments:
# [1] = test system: weeds, such as Alopecurus, Avena, Bromus, Digitaria, Echinochloa, Matricaria, Polygonum and Setaria; test: Pre-emergence test/greenhouse, summary over weeds; assay type: in vivo; conditions: cf. Table A1
# Procedure: Pre-Emergence Test/Greenhouse Solvent: 5 parts by weight of acetone Emulsifier: 1 part by weight of alkylaryl polyglycol ether To produce a suitable preparation of active compound, 1 part by weight of active compound is mixed with the stated amount of solvent, the stated amount of emulsifier is added and the concentrate is diluted with water to the desired concentration. Seeds of the test plants are sown in normal soil. After about 24 hours, the soil is sprayed with the preparation of active compound such that the particular amount of active compound desired is applied per unit area. The concentration of the spray liquor is chosen so that the particular amount of active compound desired is applied in 500 ml of water per hectare. After three weeks, the degree of damage to the plants is assessed in % damage in comparison to the development of the untreated control. […] Table A1). The considerable superiority of (I)-Na-salt over the comparative compound (G) is shown in Table A2 [“ai.”=“active ingredient”].
# Matricaria = test: Pre-emergence test/greenhouse; assay type: in vivo; conditions: 30 g of ai./ha, after three weeks
# Procedure: (§1) Pre-Emergence Test/Greenhouse Solvent: 5 parts by weight of acetone Emulsifier: 1 part by weight of alkylaryl polyglycol ether To produce a suitable preparation of active compound, 1 part by weight of active compound is mixed with the stated amount of solvent, the stated amount of emulsifier is added and the concentrate is diluted with water to the desired concentration. Seeds of the test plants are sown in normal soil. After about 24 hours, the soil is sprayed with the preparation of active compound such that the particular amount of active compound desired is applied per unit area. The concentration of the spray liquor is chosen so that the particular amount of active compound desired is applied in 500 ml of water per hectare. After three weeks, the degree of damage to the plants is assessed in % damage in comparison to the development of the untreated control. The figures denote: • 0%=no effect (like untreated control) • 100%=total destruction
# Wheat [2] = test: Pre-emergence test/greenhouse; assay type: in vivo; conditions: pre-emergence; for degree of damage, Wheat: 30 g of ai./ha, after three weeks, 0%=no effect, 100%=total destruction
# Procedure: as §1
# Polygonum = test: Pre-emergence test/greenhouse; assay type: in vivo; conditions: 30 g of ai./ha, after three weeks
# Procedure: as §1
# Bromus [3] = test: Pre-emergence test/greenhouse; assay type: in vivo; conditions: 30 g of ai./ha, after three weeks
# Procedure: as §1
# Echinochloa = test: Pre-emergence test/greenhouse; assay type: in vivo; conditions: 30 g of ai./ha, after three weeks
# Procedure: as §1
# Avena [4] = test: Pre-emergence test/greenhouse; assay type: in vivo; conditions: 504 h, after three weeks, read-out: degree of damage, Avena; for pest or weed control at 30 g/ha: 30 g of ai./ha
# Procedure: as §1
# Alopecurus [5] = test: Pre-emergence test/greenhouse; assay type: in vivo; conditions: 504 h, after three weeks, read-out: degree of damage, Alopecurus; for pest or weed control at 30 g/ha: 30 g of ai./ha
# Procedure: as §1
# Setaria [6] = test: Pre-emergence test/greenhouse; assay type: in vivo; conditions: after three weeks
# Procedure: as §1
# Digitaria = test: Pre-emergence test/greenhouse; assay type: in vivo; conditions: 30 g of ai./ha, after three weeks
# Procedure: as §1
# Wheat [7] = test: Post-emergence test/greenhouse; assay type: in vivo; conditions: post-emergence, 60 g ai./ha, after three weeks; 0%=no effect, 100%=total destruction
# Procedure: (§2) Post-Emergence Test/Greenhouse [table] To produce a suitable preparation of active compound, 1 part by weight of active compound is mixed with the stated amount of solvent, the stated amount of emulsifier is added and the concentrate is diluted with water to the desired concentration. Test plants which have a height of 5-15 cm are sprayed with the preparation of active compound such that the particular amounts of active compound desired are applied per unit area. The concentration of the spray liquor is chosen so that the particular amounts of active compound desired are applied in 500 ml of water/ha. After three weeks, the degree of damage to the plants is assessed in % damage in comparison to the development of the untreated control. The figures denote: • 0%=no effect (like untreated control) • 100%=total destruction
# Bromus [8] = test: Post-emergence test/greenhouse; assay type: in vivo; conditions: 60 g ai./ha, after three weeks
# Procedure: as §2
# Avena [9] = test: Post-emergence test/greenhouse; assay type: in vivo; conditions: after three weeks
# Procedure: as §2
# Alopecurus [10] = test: Post-emergence test/greenhouse; assay type: in vivo; conditions: 504 h, after three weeks, read-out: degree of damage, Alopecurus; for pest or weed control at 60 g/ha: 60 g ai./ha; for pest or weed control at 250 g/ha: 250 g ai./ha
# Procedure: as §2
# Setaria [11] = test: Post-emergence test/greenhouse; assay type: in vivo; conditions: after three weeks
# Procedure: as §2
# Lolium = test: Post-emergence test/greenhouse; assay type: in vivo; conditions: 60 g ai./ha, after three weeks
# Procedure: as §2
# Agropyron = test: Post-emergence test/greenhouse; assay type: in vivo; conditions: 60 g ai./ha, after three weeks
# Procedure: as §2
# [12] = test system: weeds, such as Agropyron, Alopecurus, Avena, Bromus, Lolium, Setaria and Veronica; test: Post-emergence test/greenhouse, summary over weeds; assay type: in vivo; conditions: cf. Table B1
# Procedure: as §2, with “[…] A considerable superiority of (I)-Na-salt (at 125 g/ha) over the comparative compounds (G) and (H) (in each case at 250 g/ha!) is shown in Table B2.” for “The figures denote: • 0%=no effect (like untreated control) • 100%=total destruction”
# Avena fatua = test: Post-emergence tests/outdoors (Example C, Canada); assay type: in vivo; conditions: outdoors, 30 g of a.i./ha + SAS (Canplus 411), 70 WP, 6 tests
# Procedure: (§3) Post-Emergence Tests/Outdoors In addition to the comparative compounds (B) and (D), the sodium salt of the compound of the formula (I) was tested under outdoor conditions in the main cultivation areas of summer wheat in Canada against economically important weeds. The small-plot experiments were carried out on cultivated land under agricultural use. Areas with particularly extensive weed growth were chosen preferably. The active compounds were applied across the area by the spray method, with an average droplet size. To produce a useful preparation of active compound, the active compounds were formulated as 70 WP (70% w/w water-dispersible powder) and applied with customary amounts of water. Wetting of the plants was improved by addition of a surface-active substance (SAS) in the concentrations recommended by the respective manufacturer. To assess the crop compatibility, from 1 to 8 weeks after the treatment, plant growth inhibitions or […] of the leaf area were assessed in % damage in comparison to the development of the untreated control. At different intervals after the treatment, the herbicidal activity was assessed as % reduction in comparison to the untreated control, based on the weed development. The figures denote: • 0%=no damage of the crops or no herbicidal effect, • 100%=total destruction of the crops or the weeds.
# Sinapis arvensis = test: Post-emergence tests/outdoors (Example C, Canada); assay type: in vivo; conditions: outdoors, 30 g of a.i./ha + SAS (Canplus 411), 70 WP, 5 tests
# Procedure: as §3
# Thlaspi arvense = test: Post-emergence tests/outdoors (Example C, Canada); assay type: in vivo; conditions: outdoors, 30 g of a.i./ha + SAS (Canplus 411), 70 WP, 3 tests
# Procedure: as §3
# Setaria viridis = test: Post-emergence tests/outdoors (Example C, Canada); assay type: in vivo; conditions: outdoors, 30 g of a.i./ha + SAS (Canplus 411), 70 WP, 5 tests
# Procedure: as §3
# Fallopia convolvulus = test: Post-emergence tests/outdoors (Example C, Canada); assay type: in vivo; conditions: outdoors, 30 g of a.i./ha + SAS (Canplus 411), 70 WP, 5 tests
# Procedure: as §3
# Veronica = test: Post-emergence test/greenhouse; assay type: in vivo; conditions: 60 g ai./ha, after three weeks
# Procedure: as §2
# wheat [13] = test: Post-emergence tests/outdoors (Example C, Canada), crop damage; assay type: in vivo, summer wheat; conditions: outdoors, 30 g of a.i./ha + SAS (Canplus 411), 70 WP, 9 tests, 1 to 8 weeks after treatment
# Procedure: as §3
SMILES,"herbicidal activity (in words, compared with (I)-Na-salt) [1]","degree of damage, Matricaria (Matricaria) [%]","degree of damage, Wheat (Wheat [2]) [%]","degree of damage, Polygonum (Polygonum) [%]","degree of damage, Bromus (Bromus [3]) [%]","degree of damage, Echinochloa (Echinochloa) [%]",pest or weed control at 30 g/ha (Avena [4]) [%],pest or weed control at 30 g/ha (Alopecurus [5]) [%],"degree of damage, Setaria (Setaria [6]; 30 g of ai./ha) [%]","degree of damage, Digitaria (Digitaria) [%]","degree of damage, Wheat (Wheat [7]) [%]","degree of damage, Bromus (Bromus [8]) [%]","degree of damage, Avena (Avena [9]; 60 g ai./ha) [%]",pest or weed control at 60 g/ha (Alopecurus [10]) [%],"degree of damage, Setaria (Setaria [11]; 60 g ai./ha) [%]","degree of damage, Lolium (Lolium) [%]","degree of damage, Agropyron (Agropyron) [%]","herbicidal activity (in words, compared with (I)-Na-salt) [12]","degree of damage, Veronica (Veronica) [%]","degree of damage, Avena (Avena [9]; 250 g ai./ha) [%]",further results
"CCn1c(OC)nn(C(=O)NS(=O)(=O)c2ccccc2OC(F)(F)F)c1=O [(A), 2-(2-Trifluoromethoxy-phenylsulphonylaminocarbonyl)-4-ethyl-5-methoxy-2,4-dihydro-3H-1,2,4-triazol-3-one]",considerably weaker herbicidal activity,0,0,0,40,50,0,20,60,0,0,40,0,0,40,0,0,considerably weaker herbicidal activity,–,–,–
"CCOc1nn(C(=O)NS(=O)(=O)c2ccccc2OC(F)(F)F)c(=O)n1C [(B), 2-(2-Trifluoromethoxy-phenylsulphonylaminocarbonyl)-4-methyl-5-ethoxy-2,4-dihydro-3H-1,2,4-triazol-3-one]",–,–,50,80,–,–,80,70,–,–,0,–,–,40,–,70,–,considerably weaker herbicidal activity,70,–,"compatibility with crop plants (wheat), in words (Wheat [2]; cf. Table A1): not compatible with wheat; herbicidal effect (%), Avena fatua (Avena fatua): 69%; herbicidal effect (%), Sinapis arvensis (Sinapis arvensis): 97%; herbicidal effect (%), Thlaspi arvense (Thlaspi arvense): 97%; herbicidal effect (%), Setaria viridis (Setaria viridis): 95%; herbicidal effect (%), Fallopia convolvulus (Fallopia convolvulus): 71%; Crop damage (wheat) (wheat [13]): 5%"
"COn1c(C)nn(C(=O)NS(=O)(=O)c2ccccc2OC(F)(F)F)c1=O [(C), 2-(2-Trifluoromethoxy-phenylsulphonylaminocarbonyl)-4-methoxy-5-methyl-2,4-dihydro-3H-1,2,4-triazol-3-one]",considerably weaker herbicidal activity,0,0,0,0,0,0,0,0,0,0,0,0,0,0,0,0,considerably weaker herbicidal activity,0,–,–
"COc1nn(C(=O)NS(=O)(=O)c2ccccc2OC(F)F)c(=O)n1C [(E), 2-(2-Difluoromethoxy-phenylsulphonylaminocarbonyl)-4-methyl-5-methoxy-2,4-dihydro-3H-1,2,4-triazol-3-one]",considerably weaker herbicidal activity,0,0,60,0,30,30,50,80,40,0,0,70,20,–,20,60,considerably weaker herbicidal activity,30,–,–
"COc1nn(C(=O)NS(=O)(=O)c2ccccc2OC(F)(F)C(F)F)c(=O)n1C [(G), 2-[2-(1,1,2,2-Tetrafluoroethoxy)-phenylsulphonylaminocarbonyl]-4-methyl-5-methoxy-2,4-dihydro-3H-1,2,4-triazol-3-one]",–,–,–,–,–,–,–,–,–,–,–,–,–,–,–,–,–,–,–,0,"pest or weed control at 250 g/ha (Avena [4]; 250 g ai./ha): 0%; pest or weed control at 250 g/ha (Alopecurus [5]; 250 g ai./ha): 50%; degree of damage, Setaria (Setaria [6]; 250 g ai./ha): 50%; pest or weed control at 250 g/ha (Alopecurus [10]): 30%; degree of damage, Setaria (Setaria [11]; 250 g ai./ha): 30%"
"COc1nn(C(=O)NS(=O)(=O)c2ccccc2OC(F)(F)C(F)(F)F)c(=O)n1C [(H), 2-[2-(Pentafluoroethoxy)-phenylsulphonylaminocarbonyl]-4-methyl-5-methoxy-2,4-dihydro-3H-1,2,4-triazol-3-one]",–,–,–,–,–,–,–,–,–,–,–,–,–,–,–,–,–,–,–,80,"pest or weed control at 250 g/ha (Alopecurus [10]): 40%; degree of damage, Setaria (Setaria [11]; 250 g ai./ha): 20%"
